Assay results from PubChem BioAssay (NCI).
Where “and” joins values, the source holds several entries; their conditions need not be identical. Identical values can stand only once.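 Tested at 5 concentrations; 48 h exposure; 96-well plates; endpoints linearly interpolated, else capped at highest concentration. GI50 marks 50% less growth. TGI: total growth inhibition.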

Assays:
Assay in all cases: growth of human tumour cells (NCI), 48 h
HCT-116 colon = system: HCT-116 colon
786-0 renal = system: 786-0 renal
A498 renal = system: A498 renal
DMS 273 small cell lung = system: DMS 273 small cell lung
LXFL 529 NSCLC = system: LXFL 529 NSCLC
CCRF-CEM leukemia = system: CCRF-CEM leukemia
SF-539 CNS = system: SF-539 CNS
COLO 205 colon = system: COLO 205 colon
MDA-MB-231 breast = system: MDA-MB-231 breast
BT-549 breast = system: BT-549 breast

Structure (SMILES)	TGI (HCT-116 colon)	TGI (786-0 renal)	TGI (A498 renal)	TGI (DMS 273 small cell lung)	TGI (LXFL 529 NSCLC)	TGI (CCRF-CEM leukemia)	TGI (SF-539 CNS)	TGI (COLO 205 colon)	GI50 (786-0 renal)	GI50 (MDA-MB-231 breast) [µM]	TGI (MDA-MB-231 breast) [µM]	GI50 (BT-549 breast)	TGI (BT-549 breast)	GI50 (COLO 205 colon)	GI50 (CCRF-CEM leukemia)	GI50 (SF-539 CNS)	GI50 (HCT-116 colon)	GI50 (A498 renal) [µM]	GI50 (DMS 273 small cell lung)	GI50 (LXFL 529 NSCLC) [µM]
CCN(CC)CCC(=O)N1CCc2c([nH]c3ccccc23)C1c1cccnc1 (stereo not drawn)	> 100 µM	> 100 µM	> 100 µM	> 100 µM	> 100 µM	> 100 µM	> 100 µM	–	–	–	–	–	–	–	–	–	–	–	–	–
O=c1[nH]c(=O)n(C2CC(O)C(CO)O2)cc1C#Cc1cc(C(F)(F)F)cc(C(F)(F)F)c1 (stereo not drawn)	> 100 µM	> 100 µM	> 100 µM	> 93.6 µM	> 100 µM	> 100 µM	> 90.9 µM	> 42.7 µM	–	–	–	–	–	–	–	–	–	–	–	–
N#CCCN(CCC#N)c1ccc(/C=N\c2nc(-c3ccccc3)cs2)cc1	> 100 µM	> 100 µM	> 100 µM	> 100 µM	> 100 µM	–	> 100 µM	> 100 µM	–	–	–	–	–	–	–	–	–	–	–	–
C[N+](C)(C)Cc1c(CC#N)[nH]c2ccccc12	> 100 µM	> 100 µM	> 100 µM	> 100 µM	> 100 µM	> 100 µM	> 100 µM	> 100 µM	–	–	–	–	–	–	–	–	–	–	–	–
COc1ccc2cc3[n+](cc2c1OC)CCc1cc2c(cc1-3)OCO2	> 100 µM and > 76.7 µM and 79.8 µM	> 100 µM	> 307 µM	73.7 µM and 49.4 µM	> 74.9 µM	–	> 100 µM and 83.1 µM	33.3 µM [middle of 5 runs]	72.7 µM	15.9	> 100	3.71 µM and 2.59 µM and 5.39 µM	> 100 µM and 56.9 µM	7.46 µM [middle of 5 runs]	9.29 µM	18.1 µM	–	–	–	–
Oc1ccc2c3c1OC1C(=NN=C4CCC5(O)C6Cc7ccc(O)c8c7C5(CCN6CC5CC5)C4O8)CCC4(O)C(C2)N(CC2CC2)CCC314 (stereo not drawn)	30.1 µM	66.2 µM	> 67.7 µM	63.9 µM	43.5 µM	> 68.1 µM	> 55.5 µM	38.4 µM	–	–	–	–	–	–	–	–	–	–	–	–
CCOP(=O)(OCC)/C(C#N)=C/c1ccc[nH]1	> 100 µM	> 100 µM	–	> 100 µM	> 100 µM	> 100 µM	> 100 µM	> 100 µM	–	–	–	–	–	–	–	–	–	–	–	–
N#Cc1c(-c2ccc(Cl)cc2)c(-c2ccc(Cl)cc2)nn(CCOC(=O)CCC(=O)O)c1=O	4.01 µM	55.3 µM	9.23 µM	14.7 µM	> 100 µM	> 43.6 µM	1.49 µM	2.57 µM	–	–	28.6	–	> 100 µM	–	–	–	–	–	–	–
CCC[CH2][Sn]1([CH2]CCC)[O]C(=O)c2cccc(OC)c2[O]1	1.69 µM	1.91 µM	0.465 µM	1.96 µM	0.212 µM	–	1.42 µM	1.78 µM	0.554 µM	–	–	–	–	0.491 µM	0.0261 µM	0.387 µM	0.494 µM	0.21	0.569 µM	0.0427
Cn1cnc([N+](=O)[O-])c1Sc1nc2cccnc2s1	29.5 µM	28.1 µM	> 100 µM	57.4 µM	25 µM	–	42 µM	22.7 µM	–	–	–	–	–	–	–	–	–	–	–	–
COC(=O)c1c(C)cc2c(c1O)C1(O)C(=O)c3cc4c(c(O)c3C(=O)C1(OC)C(O)C2)C(=O)C=C(NC1OC(C)C(OC)C(O)C1OC)C4=O (stereo not drawn)	0.177 µM	0.202 µM	0.71 µM	0.468 µM	0.205 µM	0.166 µM	0.2 µM	0.186 µM	–	–	–	–	–	–	–	–	–	–	–	–
O=C(Nc1ccc([N+](=O)[O-])cc1C(=O)O)c1ccc([N+](=O)[O-])cc1	53.9 µM	> 100 µM	> 100 µM	> 100 µM	> 100 µM	26.9 µM	> 100 µM	–	–	–	–	–	–	–	–	–	–	–	–	–
O=C1C2C(C(=O)N1c1ccccc1)C1(c3ccccc3)OC2(c2ccccc2)c2ccccc21 (stereo not drawn)	–	> 100 µM	–	> 100 µM	> 100 µM	> 100 µM	> 100 µM	> 100 µM	–	–	–	–	–	–	–	–	–	–	–	–
CN(C)CC(C)(C)C(/C=C/c1ccccc1)=N\Nc1ccccc1	15.7 µM	14.8 µM	37.9 µM	11.2 µM	0.446 µM	16.2 µM	0.897 µM	11.3 µM	–	–	–	–	–	–	–	–	–	–	–	–
Cc1cc(NS(=O)(=O)c2ccc(NC(=O)c3cccc4cc5ccccc5nc34)cc2)no1	19.6 µM	32.6 µM	37 µM	32.4 µM	31.5 µM	54.3 µM	33.3 µM	53.4 µM	–	–	–	–	–	–	–	–	–	–	–	–
Cc1ccc([N+](=O)[O-])cc1NC(=O)C(=O)Cc1cc(=O)oc2cc(O)ccc12	47.5 µM	> 100 µM	> 100 µM	–	> 100 µM	> 100 µM	> 100 µM	> 100 µM	–	–	–	–	–	–	–	–	–	–	–	–
COc1ccc(CC2NCCc3cc(OC)c(OC)cc32)cc1 (stereo not drawn)	> 100 µM	> 100 µM	–	> 100 µM	> 100 µM	> 100 µM	> 100 µM	> 100 µM	–	–	–	–	–	–	–	–	–	–	–	–

Structure (SMILES)	TGI (HCT-116 colon)	TGI (786-0 renal)	TGI (A498 renal)	TGI (DMS 273 small cell lung)	TGI (LXFL 529 NSCLC)	TGI (CCRF-CEM leukemia)	TGI (SF-539 CNS)	TGI (COLO 205 colon)	GI50 (786-0 renal)	GI50 (MDA-MB-231 breast) [µM]	TGI (MDA-MB-231 breast) [µM]	GI50 (BT-549 breast)	TGI (BT-549 breast)	GI50 (COLO 205 colon)	GI50 (CCRF-CEM leukemia)	GI50 (SF-539 CNS)	GI50 (HCT-116 colon)	GI50 (A498 renal) [µM]	GI50 (DMS 273 small cell lung)	GI50 (LXFL 529 NSCLC) [µM]
O=C1SC(c2ccccc2)(c2ccccc2)c2ccccc21	> 100 µM	> 100 µM	–	> 100 µM	> 100 µM	> 100 µM	> 100 µM	> 100 µM	–	–	–	–	–	–	–	–	–	–	–	–
Nc1ccc(C(=O)NN2C(=O)C(Cl)C2c2ccc([N+](=O)[O-])cc2)cc1 (stereo not drawn)	4.31 µM	16.6 µM	38.6 µM	17.5 µM	18.2 µM	14 µM	25.6 µM	29.1 µM	–	–	–	–	–	–	–	–	–	–	–	–
COCOCc1cc(OCc2ccccc2)c(OC)cc1Br	> 100 µM	> 100 µM	> 100 µM	> 100 µM	–	> 100 µM	> 100 µM	> 100 µM	–	–	–	–	–	–	–	–	–	–	–	–
CC(=O)OC1(C#N)CC2OC1C1C2N1C(=O)OC(C)(C)C (stereo not drawn)	> 100 µM	> 100 µM	> 100 µM	–	> 100 µM	> 100 µM	> 100 µM	> 100 µM	–	–	–	–	–	–	–	–	–	–	–	–
Cc1ccc(-c2nc3c(C(=O)NCCN(C)C)cccc3[nH]2)cc1	20.1 µM	> 100 µM	27.8 µM	27.1 µM	–	47.4 µM	23 µM	20.4 µM	–	–	–	–	–	–	–	–	–	–	–	–
CC(C)[Si](OCC1CC(C[C@H]2CC(C[C@H]3C[C@@H](CO[Si](C(C)C)(C(C)C)C(C)C)OC(C)(C)O3)OC(C)(C)O2)OC(C)(C)O1)(C(C)C)C(C)C (stereo partly drawn)	> 100 µM	> 100 µM	> 100 µM	> 100 µM	–	> 100 µM	> 100 µM	> 100 µM	–	–	–	–	–	–	–	–	–	–	–	–
CC1CC(=O)C(CC(=O)O)C1C(C(=O)C(=O)Nc1c(C#N)cccc1[N+](=O)[O-])[N+](=O)[O-] (stereo not drawn)	> 100 µM	> 100 µM	> 100 µM	–	> 100 µM	> 100 µM	> 100 µM	> 100 µM	–	–	–	–	–	–	–	–	–	–	–	–
S=P1(c2ccccc2)Nc2ccc(Cl)cc2N1 (stereo not drawn)	–	> 100 µM	> 100 µM	> 100 µM	> 100 µM	> 100 µM	> 100 µM	45.5 µM	–	–	–	–	–	–	–	–	–	–	–	–
Cn1cnc([N+](=O)[O-])c1SC1=NCCS1	> 100 µM	> 100 µM	> 100 µM	> 100 µM	> 100 µM	> 100 µM	> 100 µM	> 100 µM	–	–	–	–	–	–	–	–	–	–	–	–
Cc1ccc(NC(=O)C(=O)C2NC(=S)NC2=O)c([N+](=O)[O-])c1 (stereo not drawn)	> 100 µM	> 100 µM	> 100 µM	> 100 µM	> 100 µM	> 100 µM	> 100 µM	> 100 µM	–	–	–	–	–	–	–	–	–	–	–	–
C=CCC12CC(=O)C=C1CCC1(C2)OCCO1 (stereo not drawn)	> 100 µM	> 100 µM	> 100 µM	> 100 µM	> 100 µM	> 100 µM	> 100 µM	> 100 µM	–	–	–	–	–	–	–	–	–	–	–	–
N#Cc1c(NC(=O)c2cccc3ccccc23)sc2c1CCCC2	5.37 µM	> 25 µM	1.83 µM	–	–	> 25 µM	> 25 µM	0.193 µM	0.101 µM	0.148	> 14.5	0.144 µM	> 20.9 µM	0.0723 µM	0.0422 µM	0.0274 µM	0.0673 µM	0.0171	–	–
O=C(Nc1cccnc1)c1cccc([N+](=O)[O-])c1	> 100 µM	> 100 µM	> 100 µM	–	–	> 100 µM	> 100 µM	> 100 µM	> 100 µM	> 100	> 100	> 100 µM	> 100 µM	> 100 µM	> 100 µM	> 100 µM	> 100 µM	> 100	–	–
C/C=C(\CCC1NCCc2c1[nH]c1ccccc21)[Si](C)(C)C (stereo not drawn)	10.3 µM and 3.13 µM	9.79 µM and 3.34 µM	14 µM and 9.88 µM	11.3 µM and 4.07 µM	9.27 µM and 3.2 µM	17.2 µM and 8.44 µM	11.9 µM and 3.09 µM	27.5 µM and 3.26 µM	5.26 µM and 1.81 µM	–	4.56	–	23.2 µM	–	7.18 µM and 2.17 µM	6.2 µM and 1.66 µM	5.6 µM and 1.71 µM	–	5.99 µM and 1.93 µM	–
COc1cc2c3c(n(CCCCNC(=O)OCC4c5ccccc5-c5ccccc54)c(=O)c2cc1OC)-c1cc2c(cc1C3=O)OCO2	33.6 µM	28.1 µM	> 100 µM	–	–	> 100 µM	37.6 µM	> 100 µM	4.67 µM	26.5	> 100	79.1 µM	> 100 µM	49.9 µM	2.75 µM	6.42 µM	7.73 µM	> 100	–	–
COc1ccc2c(c1)C(=O)/C(=C/c1ccc([N+](=O)[O-])s1)O2	0.401 µM	6.73 µM	6.51 µM	–	–	–	1.41 µM	1.68 µM	1.47 µM	0.203	0.474	0.246 µM	0.617 µM	0.49 µM	0.308 µM	0.352 µM	0.204 µM	2.05	–	–
O=C1Nc2ccccc2/C1=C/c1cn(C(=O)c2c(Cl)cccc2Cl)c2ccccc12	3.38 µM	12.7 µM	4.32 µM	–	–	15.6 µM	21.1 µM	22.2 µM	3.28 µM	3.09	16.8	2.4 µM	8.95 µM	7.52 µM	0.337 µM	4.96 µM	1.67 µM	1.25	–	–
